This note sets out measurements from PubChem BioAssay AID2004 (Sanford-Burnham Center for Chemical Genomics, 2009).

This assay has as its target Dual specificity protein phosphatase 3 (Homo sapiens) (UniProt P51452). The assay can be described thus: PubChem AID 2004. The conditions noted are these: recombinant VHR phosphatase, colorimetric substrate read-out.

Sequence of Dual specificity protein phosphatase 3 (Homo sapiens) (P51452 whole entry, looked up): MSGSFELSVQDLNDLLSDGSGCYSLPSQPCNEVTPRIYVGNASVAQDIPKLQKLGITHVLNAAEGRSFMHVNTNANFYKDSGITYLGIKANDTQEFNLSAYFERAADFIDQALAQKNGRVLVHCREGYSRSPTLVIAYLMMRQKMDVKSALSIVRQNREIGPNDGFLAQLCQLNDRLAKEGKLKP

Consider `Cc1ccc(C)n1-c1ccc(SCC(=O)O)cc1`, for which the Ki (as a rule, the equilibrium dissociation constant of an inhibitor or competing ligand from its target) is 2.09 µM.
Turning to `O=C(/C=C/c1ccc(-c2ccccc2[N+](=O)[O-])o1)Nc1ccc(-c2nc3ccccc3o2)cc1`, the Ki is 1.76 µM.
In the case of `O=C1NC(=O)N(c2cccc(Br)c2)C(=O)/C1=C/c1ccc(-c2ccc(C(=O)O)cc2)o1` it was 16.2 µM.
Regarding `CCOC(=O)c1[nH]nc2c1C(=O)N(c1ccc(Br)cc1)C2=O`, the inhibitory constant (Ki) was 2.64 µM.
In the case of `CC1=C(C#N)c2nc(N)c(C#N)c(C)c2/C1=C/c1ccc(-c2ccc(C(=O)O)c(Cl)c2)o1` it was 3.87 µM; in that of `O=C(O)c1cccc(-c2ccc(/C=N/Nc3ccc([N+](=O)[O-])cn3)o2)c1`, 13.8 µM.
To `COc1ccc(OC)c2c1C(=O)c1ccccc1C2=O` belongs 3.07 µM.
To `O=C1NC(=S)N(c2ccc(F)cc2)C(=O)/C1=C/c1ccc(Br)o1` belongs 12.1 µM; to `O=c1[nH]c(=S)n(-c2cccc(Cl)c2)c(O)c1/C=C1/C=CC=N1`, 3.49 µM.
Take `Cc1ccc(C)n1-c1ccc(C(=O)O)c(O)c1`: the inhibition constant (Ki) is 12.8 µM.
To `O=C1/C(=C/C=C/c2ccccc2)SC(=S)N1CCS(=O)(=O)O` belongs 0.809 µM.
As for `O=C1c2cccc3c4ccccc4n(c23)C(=O)C1(O)O`, the Ki was 13.8 µM.
To `O=C1C(Cl)=C/C(=N\S(=O)(=O)c2ccc(Cl)cc2)C(Cl)=C1Cl` belongs 13.4 µM; to `O=C(O)C(Cc1ccccc1)N1C(=O)/C(=C/C=C/c2ccccc2)SC1=S` (stereo not drawn), 2.01 µM.
As for `COc1ccc(N2C(=O)/C(=C/c3ccc(I)o3)C(=O)NC2=S)cc1`, the Ki was 4.44 µM.
In the case of `O=C(/C=C/c1ccco1)/C=C/c1ccc(-c2ccc(Cl)c(Cl)c2)o1` it was 15.9 µM.
In the case of `C=CCN1C(=O)/C(=C\C=C\c2ccco2)C(=O)NC1=S` it was 15.8 µM.
In the case of `S=C(Nc1ccc2c(c1)oc1ccccc12)Nc1cccc2ccccc12` it was 2.94 µM.
